Test results taken from patent US8637537B2, “Serine/threonine kinase inhibitors” (Genentech, Inc., priority 2011, dated 2014).
Like-named read-outs stand apart in the source and are kept apart here.

Target: T1, human recombinant GST-PAK1-KD protein (Homo sapiens, UniProt Q13153)
T1 construct: residues #249-545 of human PAK1, UniProtKP/Swiss Q13153; His6 (N); made in house; host or cells: Sf9 insect cells, pAcGP67 baculovirus expression vector
Assay: GST-PAK1-KD (kinase domain) biochemical assay, microfluidic mobility shift
Procedure: Activity of human recombinant GST-PAK1-KD protein was assessed in vitro assay by observing the phosphorylation of a fluorogenic peptide substrate.
The peptide substrate is a consensus sequence based on various PAK1 substrates reported in the scientific literature. […] Incubations were carried out at 22° C. in MatriCal MP101 384-well Metriplates™. […] Following the 30-minute incubation, the assay mixtures were quenched by the addition of 3 μL of 250 mM EDTA, and the substrate and phosphorylated product were separated by capillary electrophoresis and detected using LabChip® Caliper 3000 (Caliper Life Sciences).

[1] = Table I, PAK1 Ki class, read-out: Ki

T1 sequence (Q13153 249-545): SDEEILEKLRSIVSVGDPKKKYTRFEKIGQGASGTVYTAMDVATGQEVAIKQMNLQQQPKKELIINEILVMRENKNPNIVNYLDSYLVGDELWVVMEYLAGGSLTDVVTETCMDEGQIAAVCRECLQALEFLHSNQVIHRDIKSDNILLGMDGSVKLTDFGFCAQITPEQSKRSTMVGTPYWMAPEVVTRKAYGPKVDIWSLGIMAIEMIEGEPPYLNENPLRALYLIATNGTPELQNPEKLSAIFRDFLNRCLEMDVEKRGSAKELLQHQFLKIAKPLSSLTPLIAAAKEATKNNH

Row | Ki [1] [µM] | SMILES | other results
1 | 0.05 to 0.25 | C[C@H](Nc1nccc(Nc2cc(C3CC3(F)F)[nH]n2)n1)c1ccc2[nH]ccc2c1 (mixture of isomers) [I-66, N^2—((S)-1-(1H-indol-5-yl)ethyl)-N^4-(5-(2,2-difluorocyclopropyl)-1H-pyrazol-3-yl)pyrimidine-2,4-diamine] | 
2 | 0.05 to 0.25 | c1ccc([C@@H]2C[C@H]2c2cc(Nc3ccnc(NCc4ccc5[nH]cnc5c4)n3)n[nH]2)cc1 (racemic) [I-27, N^2-(1H-Benzimidazol-5-ylmethyl)-N^4-[5-[(trans)-2-phenylcyclopropyl]-1H-pyrazol-3-yl]pyrimidine-2,4-diamine] | 
3 | 0.25 to 1 | c1ccc([C@@H]2C[C@H]2c2cc(Nc3ccnc(NCc4cccc5[nH]ccc45)n3)n[nH]2)cc1 (racemic) [I-57, N^2-((1H-indol-4-yl)methyl)-N^4-(5-((trans)-2-phenylcyclopropyl)-1H-pyrazol-3-yl)pyrimidine-2,4-diamine] | 
4 | < 0.05 | F[C@@H]1C[C@H]1c1cc(Nc2ccnc(NCc3cccc4[nH]ccc34)n2)n[nH]1 (racemic) [I-80, trans-N^2-((1H-indol-4-yl)methyl)-N^4-(5-(2-fluorocyclopropyl)-1H-pyrazol-3-yl)pyrimidine-2,4-diamine] | 
5 | 0.05 to 0.25 | F[C@@H]1C[C@@H]1c1cc(Nc2ccnc(NCc3cccc4[nH]ccc34)n2)n[nH]1 (racemic) [I-81] | 
6 | 0.25 to 1 | Fc1ccccc1[C@H]1C[C@@H]1c1cc(Nc2ccnc(NCc3cccc4[nH]ccc34)n2)n[nH]1 (racemic) [I-118, N^2-((1H-indol-4-yl)methyl)-N^4-(5-(trans-2-(2-fluorophenyl)cyclopropyl)-1H-pyrazol-3-yl)pyrimidine-2,4-diamine] | 
7 | < 0.05 | C[C@H](Nc1nccc(Nc2cc([C@@H]3C[C@@H]3F)[nH]n2)n1)c1ccc2[nH]cnc2c1 (single isomer, unassigned) [I-67] | 
8 | 0.05 to 0.25 | C[C@H](Nc1nccc(Nc2cc([C@H]3C[C@@H]3c3ccccc3F)[nH]n2)n1)c1ccc2[nH]cnc2c1 (stereo in doubt) [I-23, N^2—((S)-1-(1H-benzo[d]imidazol-5-yl)ethyl)-N^4-(5-((trans)-2-(2-fluorophenyl)cyclopropyl)-1H-pyrazol-3-yl)pyrimidine-2,4-diamine] | 
9 | 0.05 to 0.25 | C[C@H](Nc1nccc(Nc2cc([C@H]3C[C@@H]3c3ccccc3)[nH]n2)n1)c1ccc2[nH]cnc2c1 (stereo in doubt) [I-24, N^2—((S)-1-(1H-benzo[d]imidazol-5-yl)ethyl)-N^4-(5-((trans)-2-phenylcyclopropyl)-1H-pyrazol-3-yl)pyrimidine-2,4-diamine] | 
10 | < 0.05 | C[C@H](Nc1nccc(Nc2cc(C3CCC3)[nH]n2)n1)c1ccc2[nH]cnc2c1 [I-1, (S)—N^2-(1-(1H-benzo[d]imidazol-5-yl)ethyl)-N^4-(5-cyclobutyl-1H-pyrazol-3-yl)pyrimidine-2,4-diamine] | 
11 | < 0.05 | C[C@H](Nc1nccc(Nc2cc(C3CCCC3)[nH]n2)n1)c1ccc2[nH]cnc2c1 [I-2, (S)—N^2-(1-(1H-benzo[d]imidazol-5-yl)ethyl)-N^4-(5-cyclopentyl-1H-pyrazol-3-yl)pyrimidine-2,4-diamine] | 
12 |  | Clc1c(CNc2nccc(Nc3cc(C4CC4)[nH]n3)n2)ccc2[nH]cnc12 [I-3, N^2-[(4-Chloro-1H-benzimidazol-5-yl)methyl]-N^4-(5-cyclopropyl-1H-pyrazol-3-yl)pyrimidine-2,4-diamine] | Ki (Ki, Table I, PAK1 Ki class): < 0.05 µM
13 | 0.05 to 0.25 | Cc1cc(Nc2cc(C3CC3)[nH]n2)nc(N[C@@H](C)c2ccc3[nH]cnc3c2)n1 [I-4, (S)—N^2-(1-(1H-benzo[d]imidazol-5-yl)ethyl)-N^4-(5-cyclopropyl-1H-pyrazol-3-yl)-6-methylpyrimidine-2,4-diamine] | 
14 |  | C[C@H](Nc1nccc(Nc2cc(C3CC3)[nH]n2)n1)c1ccc2[nH]cnc2c1 [I-5, N^2-[(1S)-1-(1H-Benzimidazol-5-yl)ethyl]-N^4-(5-cyclopropyl-1H-pyrazol-3-yl)pyrimidine-2,4-diamine] | Ki (Ki, Table I, PAK1 Ki class): < 0.05 µM
15 | < 0.05 | CC[C@H](Nc1nccc(Nc2cc(C3CC3)[nH]n2)n1)c1ccc2[nH]cnc2c1 [I-6, N^2-[(1S)-1-(1H-benzimidazol-5-yl)propyl]-N^4-(5-cyclopropyl-1H-pyrazol-3-yl)pyrimidine-2,4-diamine] | 
16 | < 0.05 | C[C@@H](c1ccc2[nH]cnc2c1)N(C)c1nccc(Nc2cc(C3CC3)[nH]n2)n1 [I-9, (S)—N^2-(1-(1H-benzo[d]imidazol-5-yl)ethyl)-N^4-(5-cyclopropyl-1H-pyrazol-3-yl)-N^2-methylpyrimidine-2,4-diamine] | 
17 | < 0.05 | Cc1cc(Nc2cc(C3CC3)[nH]n2)nc(NCc2ccc3[nH]cnc3c2)n1 [I-10, N^2-((1H-benzo[d]imidazol-5-yl)methyl)-N^4-(5-cyclopropyl-1H-pyrazol-3-yl)-6-methylpyrimidine-2,4-diamine] | 
18 | < 0.05 | CN(Cc1ccc2[nH]cnc2c1)c1nccc(Nc2cc(C3CC3)[nH]n2)n1 [I-12, N^2-((1H-Benzo[d]imidazol-5-yl)methyl)-N^4-(5-cyclopropyl-1H-pyrazol-3-yl)-N^2-methylpyrimidine-2,4-diamine] | 

Row | Ki [1] [µM] | SMILES | other results
19 |  | c1cc(Nc2cc(C3CC3)[nH]n2)nc(NCc2ccc3[nH]cnc3c2)n1 [I-13, N^2-((1H-Benzo[d]imidazol-5-yl)methyl)-N^4-(5-cyclopropyl-1H-pyrazol-3-yl)pyrimidine-2,4-diamine] | Ki: < 0.05 µM
20 | < 0.05 | C[C@H](Nc1nccc(Nc2cc(C3CCOC3)[nH]n2)n1)c1ccc2[nH]cnc2c1 (stereo partly drawn) [I-14, N^2—((S)-1-(1H-benzo[d]imidazol-5-yl)ethyl)-N^4-(5-(tetrahydrofuran-3-yl)-1H-pyrazol-3-yl)pyrimidine-2,4-diamine] | 
21 |  | c1cc(Nc2cc(C3CC3)[nH]n2)nc(NCc2ccc3[nH]ccc3c2)n1 [I-15, N^2-((1H-Indol-5-yl)methyl)-N^4-(5-cyclopropyl-1H-pyrazol-3-yl)pyrimidine-2,4-diamine] | Ki: < 0.05 µM
22 | 0.05 to 0.25 | Cc1c(CNc2nccc(Nc3cc(C4CC4)[nH]n3)n2)ccc2[nH]cnc12 [I-16, N^4-(5-Cyclopropyl-1H-pyrazol-3-yl)-N^2-((4-methyl-1H-benzo[d]imidazol-5-yl)methyl)pyrimidine-2,4-diamine] | 
23 | 0.05 to 0.25 | CC(C)(Nc1nccc(Nc2cc(C3CC3)[nH]n2)n1)c1ccc2[nH]cnc2c1 [I-17, N^2-(2-(1H-Benzo[d]imidazol-5-yl)propan-2-yl)-N^4-(5-cyclopropyl-1H-pyrazol-3-yl)pyrimidine-2,4-diamine] | 
24 | 0.05 to 0.25 | C[C@H](Nc1nc(Nc2cc(C3CC3)[nH]n2)cc(C(F)(F)F)n1)c1ccc2[nH]ccc2c1 [I-18, (S)—N^2-(1-(1H-indol-5-yl)ethyl)-N^4-(5-cyclopropyl-1H-pyrazol-3-yl)-6-(trifluoromethyl) pyrimidine-2,4-diamine] | 
25 | 0.05 to 0.25 | Cc1cc(Nc2cc(C3CC3)[nH]n2)nc(NCc2ccc3[nH]ccc3c2Cl)n1 [I-19, N^2-((4-chloro-1H-indol-5-yl)methyl)-N^4-(5-cyclopropyl-1H-pyrazol-3-yl)-6-methylpyrimidine-2,4-diamine] | 
26 | 0.05 to 0.25 | Clc1c(CNc2nccc(Nc3cc(C4CC4)[nH]n3)n2)ccc2[nH]ccc12 [I-20, N^2-((4-chloro-1H-indol-5-yl)methyl)-N^4-(5-cyclopropyl-1H-pyrazol-3-yl)pyrimidine-2,4-diamine] | 
27 | 0.05 to 0.25 | C[C@H](Nc1nccc(Nc2cc(OCc3ccccc3)[nH]n2)n1)c1ccc2[nH]cnc2c1 [I-21, N^2-[(1S)-1-(1H-Benzimidazol-5-yl)ethyl]-N^4-(5-benzyloxy-1H-pyrazol-3-yl)pyrimidine-2,4-diamine] | 
28 | 0.05 to 0.25 | C[C@H](Nc1nccc(Nc2cc(C3CC3)[nH]n2)n1)c1ccc2[nH]ccc2c1Cl [I-22, (S)—N^2-(1-(4-chloro-1H-indol-5-yl)ethyl)-N^4-(5-cyclopropyl-1H-pyrazol-3-yl)pyrimidine-2,4-diamine] | 
29 | 0.05 to 0.25 | Cc1c[nH]c2ccc(CNc3nccc(Nc4cc(C5CC5)[nH]n4)n3)cc12 [I-25, N^4-(5-cyclopropyl-1H-pyrazol-3-yl)-N^2-((3-methyl-1H-indol-5-yl)methyl)pyrimidine-2,4-diamine] | 
30 | 0.05 to 0.25 | Cc1cc(CNc2nccc(Nc3cc(C4CC4)[nH]n3)n2)cc2nc[nH]c12 [I-26, N^4-(5-Cyclopropyl-1H-pyrazol-3-yl)-N^2-((7-methyl-1H-benzo[d]imidazol-5-yl)methyl)-pyrimidine-2,4-diamine] | 
31 | 0.05 to 0.25 | Fc1cc2[nH]cnc2cc1CNc1nccc(Nc2cc(C3CC3)[nH]n2)n1 [I-28, N^4-(5-Cyclopropyl-1H-pyrazol-3-yl)-N^2-((6-fluoro-1H-benzo[d]imidazol-5-yl)methyl)pyrimidine-2,4-diamine] | 
32 |  | Fc1c(CNc2nccc(Nc3cc(C4CC4)[nH]n3)n2)ccc2[nH]cnc12 [I-29, N^4-(5-Cyclopropyl-1H-pyrazol-3-yl)-N^2-[(4-fluoro-1H-benzimidazol-5-yl)methyl]pyrimidine-2,4-diamine] | Ki: 0.25 to 1 µM
33 | 0.25 to 1 | Cc1cc2[nH]cnc2cc1CNc1nccc(Nc2cc(C3CC3)[nH]n2)n1 [I-30, N^4-(5-Cyclopropyl-1H-pyrazol-3-yl)-N^2-[(6-methyl-1H-benzimidazol-5-yl)methyl]pyrimidine-2,4-diamine] | 
34 | 0.25 to 1 | Cc1cnc(N[C@@H](C)c2ccc3[nH]ccc3c2)nc1Nc1cc(C2CC2)[nH]n1 [I-31, (S)—N^2-(1-(1H-indol-5-yl)ethyl)-N^4-(5-cyclopropyl-1H-pyrazol-3-yl)-5-methylpyrimidine-2,4-diamine] | 
35 | 0.25 to 1 | Cc1cnc(NCc2ccc3[nH]cnc3c2)nc1Nc1cc(C2CC2)[nH]n1 [I-32, N^2-(1H-Benzoimidazol-5-ylmethyl)-N^4-(5-cyclopropyl-1H-pyrazol-3-yl)-5-methyl-pyrimidine-2,4-diamine] | 
